Measurements taken from BindingDB's records for doi:10.1016/s0960-894x(00)00166-9 (Universidad Complutense, 2000).

Target: 5-hydroxytryptamine receptor 7 (Rattus norvegicus, UniProt P32305)
Test: Binding affinity towards 5-hydroxytryptamine 7 receptor

5-hydroxytryptamine receptor 7, sequence (P32305 whole entry): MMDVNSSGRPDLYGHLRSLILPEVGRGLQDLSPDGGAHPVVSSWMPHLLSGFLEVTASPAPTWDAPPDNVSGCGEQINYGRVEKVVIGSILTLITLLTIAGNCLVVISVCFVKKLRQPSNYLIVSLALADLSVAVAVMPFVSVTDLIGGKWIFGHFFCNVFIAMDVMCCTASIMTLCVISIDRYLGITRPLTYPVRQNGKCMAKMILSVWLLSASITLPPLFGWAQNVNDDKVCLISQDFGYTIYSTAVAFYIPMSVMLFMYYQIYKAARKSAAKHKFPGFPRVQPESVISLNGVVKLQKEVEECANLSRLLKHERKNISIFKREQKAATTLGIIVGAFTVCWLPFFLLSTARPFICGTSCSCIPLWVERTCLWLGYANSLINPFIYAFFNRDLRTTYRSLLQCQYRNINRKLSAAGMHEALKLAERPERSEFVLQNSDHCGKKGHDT

CC(C)(C)[C@]1(O)CCN2C[C@H]3c4ccccc4CCc4cccc(c43)[C@@H]2C1
Ki: 63 nM
